# Assay results: US12043613B2, “Inhibitors of SARM1” (Disarm Therapeutics, Inc., priority 2020, dated 2024)
# Biological target: T1, SARM1 (ARM-SAM-TIR, full length SARM1) (Homo sapiens, UniProt Q6SZW1)
# T1 sequence (Q6SZW1 with tags, fused parts or gaps): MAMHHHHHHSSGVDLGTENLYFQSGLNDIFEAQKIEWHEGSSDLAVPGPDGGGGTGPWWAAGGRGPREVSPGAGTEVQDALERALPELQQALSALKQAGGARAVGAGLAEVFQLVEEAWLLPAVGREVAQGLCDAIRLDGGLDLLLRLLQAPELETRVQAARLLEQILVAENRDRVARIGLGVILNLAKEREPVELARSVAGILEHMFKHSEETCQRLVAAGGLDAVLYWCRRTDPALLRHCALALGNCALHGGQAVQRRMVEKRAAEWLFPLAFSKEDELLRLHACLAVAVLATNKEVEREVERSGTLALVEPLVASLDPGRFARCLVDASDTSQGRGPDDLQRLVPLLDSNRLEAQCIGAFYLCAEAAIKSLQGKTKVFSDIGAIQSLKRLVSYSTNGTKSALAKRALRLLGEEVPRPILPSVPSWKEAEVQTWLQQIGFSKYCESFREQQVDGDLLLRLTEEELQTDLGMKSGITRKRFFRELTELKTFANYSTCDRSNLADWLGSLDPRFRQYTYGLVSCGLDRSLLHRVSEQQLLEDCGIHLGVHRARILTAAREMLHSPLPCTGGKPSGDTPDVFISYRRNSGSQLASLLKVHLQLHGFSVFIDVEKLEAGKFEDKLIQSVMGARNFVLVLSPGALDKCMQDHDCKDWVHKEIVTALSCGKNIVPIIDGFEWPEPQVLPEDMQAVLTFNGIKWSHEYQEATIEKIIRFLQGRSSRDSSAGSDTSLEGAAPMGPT
# Experiment: biochemical
# Conditions: SARM1 IC50 (nM), ARM-SAM-TIR lysate 5 μg/mL from NRK1-HEK293T cells, 2 h pre-incubation, 5 uM NAD+, 2 hr room temperature
# Method: This assay makes use of full length SARM1, which encompasses the ARM, SAM and TIR domains.
# Preparation of ARM-SAM-TIR lysate (STL)
# NRK1-HEK293T cells were seeded onto 150 cm^2 plates at 20×10^6 cells per plate. The next day, the cells were transfected with 15 g ARM-SAM-TIR expression plasmid, SEQ ID NO: 1.
# The cultures were supplemented with 1 mM NR at time of transfection to minimize toxicity from ARM-SAM-TIR overexpression. Forty-eight hours after transfection, cells were harvested, pelleted by centrifugation at 1,000 rpm (Sorvall ST 16R centrifuge, Thermo Fisher), and washed once with cold PBS (0.01 M phosphate buffered saline NaCl 0.138 M; KCl 0.0027 M; pH 7.4). The cells were resuspended in PBS with protease inhibitors (cOmplete™ protease inhibitor cocktail, Roche product #11873580001) and cell lysates were prepared by sonication (Branson Sonifer 450, output=3, 20 episodes of stroke). The lysates were centrifuged (12,000×g for 10 min at 4° C.) to remove cell debris and the supernatants (containing ARM-SAM-TIR protein) were stored at −80° C. for later use in the in vitro ARM-SAM-TIR NADase assay (see below). Protein concentration was determined by the Bicinchoninic (BCA) method and used to normalize lysate concentrations.
# ARM-SAM-TIR IC50 assay of Formula I compounds.
# The enzymatic assay was performed in a 384-well polypropylene plate in Dulbecco's PBS buffer in a final assay volume of 20 μL. ARM-SAM-TIR lysate with a final concentration of 5 μg/mL was pre-incubated with the respective compound at 1% DMSO final assay concentration over 2h at room temperature. The reaction was initiated by addition of 5 uM final assay concentration of NAD+ as substrate. After a 2 hr room temperature incubation, the reaction was terminated with 40 μL of stop solution of 7.5% trichloroactetic acid in acetonitrile. The NAD+ and ADPR concentrations were analyzed by a RapidFire High Throughput Mass Spectrometry System (Agilent Technologies, Santa Clara, Calif.) using an API4000 triple quadrupole mass spectrometer (AB Sciex Framingham, Mass.).
row,SMILES,IC50 [nM]
1,O=C1[C@H](Cc2ccc(Cl)cc2)NCCN1c1cc(-c2ccncc2)n[nH]1 [Compound I-1-a],101 to 500
2,O=C1[C@@H](Cc2ccc(Cl)cc2)NCCN1c1cc(-c2ccncc2)n[nH]1 [Compound I-1-b],> 1000
3,Cc1c(-c2ccncc2)n[nH]c1N1CCN[C@@H](Cc2ccc(Cl)cc2)C1=O [Compound I-3-a],> 1000
4,O=C1C(Cc2ccc(Cl)cc2)CCN1c1nnc(-c2ccncc2)[nH]1 (stereo not shown) [Compound I-4],< 50
5,O=C1C(Cc2ccc(Cl)cc2)CCCN1c1nnc(-c2ccncc2)[nH]1 (stereo not shown) [Compound I-5],< 50
6,Cc1c(N2CCC(Cc3ccc(Cl)cc3)C2=O)n[nH]c1-c1ccncc1 (stereo not shown) [Compound I-6],51 to 100
7,O=C1C(Cc2ccc(F)cc2)CCN1c1nnc(-c2ccncc2)[nH]1 (stereo not shown) [Compound I-7],101 to 500
8,O=C1N(c2nnc(-c3ccncc3)[nH]2)CCC1(Cc1ccc(F)c(F)c1)Cc1ccc(F)c(F)c1 [Compound I-12],> 1000
9,O=C1C(Cc2ccc(Cl)c(F)c2)CCN1c1cc(-c2ccncc2)n[nH]1 (stereo not shown) [Compound I-14],< 50
10,O=C1C(Cc2ccc(F)c(F)c2)CCN1c1cc(-c2ccncc2)n[nH]1 (stereo not shown) [Compound I-16],< 50
11,O=C1C(Cc2ccc(Cl)nc2)CCN1c1cc(-c2ccncc2)n[nH]1 (stereo not shown) [Compound I-17],< 50
12,O=C1C(Cc2cnc(Cl)c(F)c2)CCN1c1nnc(-c2ccncc2)[nH]1 (stereo not shown) [Compound I-18],51 to 100
13,O=C1C(Cc2ccc(Cl)c(F)c2)CCCN1c1cc(-c2ccncc2)n[nH]1 (stereo not shown) [Compound I-20],< 50
14,O=C1C(Cc2ccc(Cl)nc2)CCCN1c1cc(-c2ccncc2)n[nH]1 (stereo not shown) [Compound I-21],< 50
15,O=C1C(Cc2ccc(F)c(F)c2)CCCN1c1cc(-c2ccncc2)n[nH]1 (stereo not shown) [Compound I-22],< 50
16,O=C1C(Cc2cnc(Cl)c(F)c2)CCCN1c1nnc(-c2ccncc2)[nH]1 (stereo not shown) [Compound I-24],< 50
17,O=C1C(Cc2ccc(F)nc2)CCCN1c1[nH]nc(-c2ccncc2)c1F (stereo not shown) [Compound I-27],101 to 500
18,O=C1C(Cc2ccc(Cl)nc2)CNN1c1cc(-c2ccncc2)n[nH]1 (stereo not shown) [Compound I-30],> 1000
19,O=C1C(Cc2ccc(Cl)nc2)CCCN1c1[nH]nc(-c2ccncc2)c1F (stereo not shown) [Compound I-31],101 to 500

row,SMILES,IC50 [nM]
1,O=C1C(Cc2ccc(Cl)nc2)NCN1c1cc(-c2ccncc2)n[nH]1 (stereo not shown) [Compound I-35],501 to 1000
2,O=C1C(Cc2ccc(Cl)cc2)CNCCN1c1nc(-c2ccncc2)n[nH]1 (stereo not shown) [Compound I-38],501 to 1000
3,O=C1C(Cc2ccc(Cl)nc2)CCCCN1c1cc(-c2ccncc2)n[nH]1 (stereo not shown) [Compound I-40],101 to 500
4,Cc1c(-c2ccncc2)n[nH]c1N1CCC(Cc2cnc(Cl)c(F)c2)C1=O (stereo not shown) [Compound I-41],101 to 500
5,O=C1C(Cc2ccc(Cl)cc2)OCCN1c1nnc(-c2ccncc2)[nH]1 (stereo not shown) [Compound I-44],< 50
6,O=C1C(Cc2ccc(Cl)cc2)OCCN1c1cc(-c2ccncc2)n[nH]1 (stereo not shown) [Compound I-47],51 to 100
7,Cc1c(-c2ccncc2)n[nH]c1N1CCC(Cc2ccc(Cl)nc2)C1=O (stereo not shown) [Compound I-48],101 to 500
8,N#Cc1c(-c2ccncc2)n[nH]c1N1CCC(Cc2ccc(Cl)cc2)C1=O (stereo not shown) [Compound I-52],< 50
9,CC1(Cc2ccc(Cl)cc2)CCCN(c2nc(-c3ccncc3)n[nH]2)C1=O (stereo not shown) [Compound I-54],101 to 500
10,O=C1C(Cc2ccc(Cl)nc2)CCCN1c1nnc(-c2ccncc2)[nH]1 (stereo not shown) [Compound I-55],51 to 100
11,O=C1C(Cc2ccc(Cl)nc2)OCCN1c1nnc(-c2ccncc2)[nH]1 (stereo not shown) [Compound I-58],101 to 500
12,O=C1C(Cc2ccc(Cl)cc2)NCN1c1cc(-c2ccncc2)n[nH]1 (stereo not shown) [Compound I-59],101 to 500
13,O=C1C(Cc2ccc(Cl)nc2)CNCN1c1cc(-c2ccncc2)n[nH]1 (stereo not shown) [Compound I-64],> 1000
14,O=C1C(Cc2cnc(Cl)c(F)c2)CCN1c1cc(-c2ccncc2)n[nH]1 (stereo not shown) [Compound I-65],< 50
15,O=C1C(Cc2ccc(F)nc2)CCN1c1cc(-c2ccncc2)n[nH]1 (stereo not shown) [Compound I-67],< 50
16,[2H]C1(Cc2ccc(F)nc2)C(=O)N(c2cc(-c3ccncc3)n[nH]2)C([2H])([2H])C([2H])([2H])C1([2H])[2H] (stereo not shown) [Compound I-70],51 to 100
17,N#Cc1ccc(CC2CCCN(c3cc(-c4ccncc4)n[nH]3)C2=O)cn1 (stereo not shown) [Compound I-94],101 to 500
18,O=C1C(Cc2ccc(C(F)(F)F)nc2)CCCN1c1cc(-c2ccncc2)n[nH]1 (stereo not shown) [Compound I-96],101 to 500

# Further lines, results first:
row,IC50 [nM],SMILES
1,> 1000,CN1CCN(c2cc(-c3ccncc3)n[nH]2)C(=O)[C@@H]1Cc1ccc(Cl)cc1 [Compound I-2-a]
2,< 50,O=C1C(Cc2ccc(Cl)c(F)c2)CCN1c1nnc(-c2ccncc2)[nH]1 (stereo not shown) [Compound I-8]
3,101 to 500,O=C1C(Cc2ccc(Cl)nc2)CCN1c1nnc(-c2ccncc2)[nH]1 (stereo not shown) [Compound I-9]
4,< 50,O=C1C(Cc2ccc(Cl)c(F)c2)CCCN1c1nnc(-c2ccncc2)[nH]1 (stereo not shown) [Compound I-10]
5,< 50,O=C1C(Cc2ccc(F)c(F)c2)CCN1c1nnc(-c2ccncc2)[nH]1 (stereo not shown) [Compound I-11]
6,< 50,O=C1C(Cc2ccc(F)c(F)c2)CCCN1c1nnc(-c2ccncc2)[nH]1 (stereo not shown) [Compound I-13]
7,< 50,O=C1C(Cc2ccc(Cl)cc2)CCN1c1cc(-c2ccncc2)n[nH]1 (stereo not shown) [Compound I-15]
8,< 50,O=C1C(Cc2ccc(Cl)cc2)CCCN1c1cc(-c2ccncc2)n[nH]1 (stereo not shown) [Compound I-19]
9,< 50,O=C1C(Cc2ccc(F)nc2)CCCN1c1nnc(-c2ccncc2)[nH]1 (stereo not shown) [Compound I-23]
10,101 to 500,N#Cc1ccc(CC2CCN(c3[nH]nc(-c4ccncc4)c3F)C2=O)cc1F (stereo not shown) [Compound I-25]
11,101 to 500,N#Cc1ccc(CC2CCN(c3nnc(-c4ccncc4)[nH]3)C2=O)cc1F (stereo not shown) [Compound I-26]
12,> 1000,O=C1C(Cc2ccc(F)nc2)CCCN1c1[nH]nc(-c2ccncc2)c1Cl (stereo not shown) [Compound I-28]
13,> 1000,O=C1C(Cc2ccc(Cl)nc2)CCCN1c1[nH]nc(-c2ccncc2)c1Cl (stereo not shown) [Compound I-29]
14,< 50,O=C1C(Cc2ccc(F)nc2)CCN1c1[nH]nc(-c2ccncc2)c1Cl (stereo not shown) [Compound I-32]
15,< 50,O=C1C(Cc2ccc(F)nc2)CCN1c1[nH]nc(-c2ccncc2)c1F (stereo not shown) [Compound I-33]
16,< 50,O=C1C(Cc2ccc(Cl)nc2)CCN1c1[nH]nc(-c2ccncc2)c1Cl (stereo not shown) [Compound I-34]
17,< 50,O=C1C(Cc2ccc(Cl)nc2)CCN1c1[nH]nc(-c2ccncc2)c1F (stereo not shown) [Compound I-36]
18,51 to 100,N#Cc1ccc(CC2CCN(c3cc(-c4ccncc4)n[nH]3)C2=O)cc1F (stereo not shown) [Compound I-37]

row,IC50 [nM],SMILES
1,101 to 500,O=C1C(Cc2ccc(F)nc2)CCN1c1nnc(-c2ccncc2)[nH]1 (stereo not shown) [Compound I-39]
2,> 1000,O=C1N(c2nc(-c3ccncc3)n[nH]2)CCC1(F)Cc1ccc(Cl)nc1 (stereo not shown) [Compound I-42]
3,> 1000,CC1(Cc2ccc(F)c(F)c2)CCN(c2nc(-c3ccncc3)n[nH]2)C1=O (stereo not shown) [Compound I-43]
4,501 to 1000,CC1(Cc2ccc(Cl)cc2)CCN(c2nc(-c3ccncc3)n[nH]2)C1=O (stereo not shown) [Compound I-45]
5,51 to 100,Cc1c(-c2ccncc2)n[nH]c1N1CCC(Cc2ccc(F)c(F)c2)C1=O (stereo not shown) [Compound I-49]
6,> 1000,Cc1c(-c2ccncc2)n[nH]c1N1CCCC(Cc2ccc(Cl)cc2)C1=O (stereo not shown) [Compound I-50]
7,51 to 100,N#Cc1c(-c2ccncc2)n[nH]c1N1CCC(Cc2ccc(Cl)nc2)C1=O (stereo not shown) [Compound I-51]
8,51 to 100,N#Cc1c(-c2ccncc2)n[nH]c1N1CCC(Cc2ccc(F)c(F)c2)C1=O (stereo not shown) [Compound I-53]
9,101 to 500,N#Cc1c(-c2ccncc2)n[nH]c1N1CCCC(Cc2ccc(Cl)cc2)C1=O (stereo not shown) [Compound I-56]
10,501 to 1000,N[C@H]1CC(Cc2ccc(Cl)nc2)C(=O)N(c2cc(-c3ccncc3)n[nH]2)C1 (stereo partly shown) [Compound I-60]
11,501 to 1000,CC1(Cc2ccc(Cl)nc2)CCCN(c2nnc(-c3ccncc3)[nH]2)C1=O (stereo not shown) [Compound I-63]
12,< 50,O=C1C(Cc2cnc(Cl)c(F)c2)CCCN1c1cc(-c2ccncc2)n[nH]1 (stereo not shown) [Compound I-66]
13,101 to 500,N#Cc1c(-c2ccncc2)n[nH]c1N1CCCC(Cc2ccc(Cl)nc2)C1=O (stereo not shown) [Compound I-68]
14,< 50,[2H]C([2H])(c1ccc(Cl)nc1)C1([2H])C(=O)N(c2cc(-c3ccncc3)n[nH]2)C([2H])([2H])C([2H])([2H])C1([2H])[2H] (stereo not shown) [Compound I-79]
15,101 to 500,O=C1C(Cc2ccc(C(F)(F)F)nc2)CCCN1c1nc(-c2ccncc2)n[nH]1 (stereo not shown) [Compound I-97]
16,< 50,N#Cc1ccc(CC2CCCN(c3cc(-c4ccncc4)n[nH]3)C2=O)cc1 (stereo not shown) [Compound I-98]
17,101 to 500,N#Cc1ccc(CC2CCCN(c3nc(-c4ccncc4)n[nH]3)C2=O)cc1 (stereo not shown) [Compound I-99]
18,< 50,N#Cc1cc(CC2CCCN(c3cc(-c4ccncc4)n[nH]3)C2=O)ccc1F (stereo not shown) [Compound I-100]
